Data from patent US20220119355A1, “SATURATED-RING-FUSED DIHYDROPYRIMIDINONE OR DIHYDROTRIAZINONE COMPOUNDS AND PHARMACEUTICAL USE THEREOF” (Japan Tobacco Inc., priority 2018, published 2022).

What was measured:
Assay type in all cases: cell-based
[1] = target: T1, mouse RORγ (Mus musculus, UniProt P51450); experiment: In-vitro reporter gene assay for inhibitory activity against RORγ transcription, Test Method B (pFA/mRORγ LBD / pG5-Luc in CHO cells); details: luciferase reporter, CHO cells, 2 days
T1 construct: from Ile251 to Lys516 for mouse RORγ; expressed in transfected cells; host or cells: CHO cells (transient co-transfection with pG5-Luc)
T1 sequence (P51450 251-516): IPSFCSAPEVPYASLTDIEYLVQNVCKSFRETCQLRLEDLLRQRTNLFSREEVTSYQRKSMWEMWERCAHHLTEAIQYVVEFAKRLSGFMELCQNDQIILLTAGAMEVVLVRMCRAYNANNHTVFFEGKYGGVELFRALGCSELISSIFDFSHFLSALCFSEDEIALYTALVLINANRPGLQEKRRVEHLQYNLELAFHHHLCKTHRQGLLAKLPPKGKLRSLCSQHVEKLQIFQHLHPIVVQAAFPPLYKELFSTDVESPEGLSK
Procedure: (§1) In-Vitro Assay for Inhibitory Activity Against RORγ Transcription
(§2) Inhibitory activity against RORγ transcription was assessed for test compounds by either of the following Test Method A or B of reporter gene assay.
(§3) cDNAs encoding human and mouse RORγ ligand binding domains (LBD) were obtained based on the sequences of human RORγ (Genbank registered number NM_005060.3) and mouse RORγ (Genbank registered number NM_011281.2) (LBD sequences: from Ser253 to Lys518 for human RORγ; from Ile251 to Lys516 for mouse RORγ).
(§4) LBD cDNAs of human and mouse RORγ were inserted into pFA-CMV vector (Agilent Technologies, Inc.), which expresses GAL4-DNA binding domain fusion protein. The resulting plasmids are hereinafter referred to as pFA/hRORγ plasmid and pFA/mRORγ plasmid, respectively.
(§5) pFA/hRORγ plasmid or pFA/mRORγ plasmid was transiently co-transfected into Chinese hamster ovary cells (CHO cells) with pG5-Luc (Promega), reporter plasmid expressing firefly luciferase in a GAL4-dependent manner.
(§6) TransIT (Registered trademark) CHO Transfection Kit (Mirus) was used to co-transfect CHO cells with the plasmids. One day prior to the assay, CHO cells were suspended in HAM F-12 Nutrient medium containing 10% (v/v) fetal bovine serum and seeded at 5.5×10^6 cells per 225 cm^2 cell culture flask each. 72 μL of TransIT (Registered trademark) CHO reagent was added into a 2 mL tube containing 1.55 mL of Opti-MEM, and then mixed and incubated at room temperature for 10 minutes. 50.4 μL of a plasmid solution containing 300 ng of pFA/hRORγ plasmid, 12000 ng of pG5-Luc plasmid, and 11700 ng of pcDNA3.1 plasmid were added into the tube and mixed gently. In the case of mouse assay, a plasmid solution containing 300 ng of pFA/mRORγ plasmid, 12000 ng of pG5-Luc plasmid, and 11700 ng of pcDNA3.1 plasmid was added, instead. The mixture was incubated at room temperature for 10 minutes. 12 μL each of CHO Mojo Reagent were then added into each tube and mixed gently. The mixture was incubated at room temperature for 10 minutes. The resulting transfection reagent was applied to the cell culture. After incubation at 37° C., 5% CO2 for 4 hours, the plasmid-transfected CHO cells were harvested by trypsin treatment. The collected cells were resuspended in culture medium and plated into a 384-well-white plate at 8,000 cells/35 μL/well. The plate was let stand at room temperature for 1 hour and then further incubated at 37° C., 5% CO2 for 3 hours. A test compound was dissolved in dimethyl sulfoxide (DMSO) to obtain a concentration of 10 mM. Each solution was serially diluted with DMSO and further diluted with culture medium just before use. The test compound solutions were added to the cells in the plate at 6 different concentrations. The final concentration of DMSO was 0.2% (v/v). After the addition of test compound, the cells were incubated at 37° C., 5% CO2 for 2 days.
(§7) RORγ transcriptional activity was detected as the intracellular luciferase activity using SteadyLite HTS Reporter Gene Assay System (Perkin Elmer). SteadyLite Reagent was diluted 2.5-fold with Extension buffer (10 mM Tricine, 0.2% (w/v) bovine serum albumin, 0.02% (v/v) Tween-20) to obtain a luciferase substrate solution. Two days after the addition of test compound, 40 μL each of the luciferase substrate solution was added into the 384-well-plate. After the incubation at room temperature for 10 minutes, luminescence of each well was measured with a microplate reader. The luciferase activity derived from the luminescence count in a vehicle-control well treated with 0.2% DMSO alone was defined as 100%, and the luciferase activity after treatment of the test compound was calculated as a percentage, %-of-control, based on the value of the vehicle-control. An EC50 value of the test compound was calculated by curve fitting. The luminescence counts at the concentration of test compound where cytotoxicity was observed were excluded from data analysis. […]

[2] = target: T2, human RORγ (Homo sapiens, UniProt P51449); experiment: In-vitro reporter gene assay for inhibitory activity against RORγ transcription, Test Method B (pFA/hRORγ LBD / pG5-Luc in CHO cells); details: luciferase reporter, CHO cells, 2 days
T2 construct: from Ser253 to Lys518 for human RORγ; expressed in transfected cells; host or cells: CHO cells (transient co-transfection with pG5-Luc)
T2 sequence (P51449 253-518): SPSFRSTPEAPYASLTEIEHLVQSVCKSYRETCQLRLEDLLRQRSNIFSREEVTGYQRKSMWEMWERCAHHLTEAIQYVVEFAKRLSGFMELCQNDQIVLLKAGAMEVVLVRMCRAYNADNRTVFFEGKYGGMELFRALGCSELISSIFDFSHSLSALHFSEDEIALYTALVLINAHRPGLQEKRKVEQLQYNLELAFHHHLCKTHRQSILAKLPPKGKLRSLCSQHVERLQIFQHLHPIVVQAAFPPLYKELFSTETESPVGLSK
Procedure: as §1, §2, §3, §4, §5, §6, §7

[3] = target: T2, human RORγ; experiment: In-vitro reporter gene assay for inhibitory activity against RORγ transcription, Test Method A (GAL4-hRORγ LBD / pG5-Luc in CHO cells); details: luciferase reporter, 2 days
Procedure: as §1, §2, §3
(§8) LBD cDNAs of human and mouse RORγ were inserted into pFA-CMV vector (Stratagene), which expresses GAL4-DNA binding domain fusion protein. The resulting plasmids are hereinafter referred to as GAL4-hRORγ plasmid and GAL4-mRORγ plasmid, respectively.
(§9) GAL4-hRORγ plasmid or GAL4-mRORγ plasmid was transiently co-transfected into Chinese hamster ovary cells (CHO cells) with pG5-Luc (Promega), reporter plasmid expressing firefly luciferase in a GAL4-dependent manner.
(§10) TransIT (Registered trademark) CHO Transfection Kit (Mirus) was used to co-transfect CHO cells with the plasmids. One day prior to the assay, CHO cells were suspended in HAM F-12 Nutrient medium containing 10% (v/v) fetal bovine serum and seeded at 6×10^6 cells per 175 cm^2 cell culture flask each. 54 μL of TransIT (Registered trademark) CHO reagent was added into a 15 mL tube containing 1.16 mL of HAM F-12 Nutrient medium without fetal bovine serum, and then mixed and incubated at room temperature for 10 minutes. 36 μL of a plasmid solution containing 400 ng of GAL4-hRORγ plasmid, 9000 ng of pG5-Luc plasmid, and 8600 ng of pcDNA3 plasmid were added into the tube and mixed gently. In the case of mouse assay, a plasmid solution containing 250 ng of GAL4-mRORγ plasmid, 9000 ng of pG5-Luc plasmid, and 8750 ng of pcDNA3 plasmid was added, instead. The mixture was incubated at room temperature for 10 minutes. 9 μL each of CHO Mojo Reagent were then added into each tube and mixed gently. The mixture was incubated at room temperature for 10 minutes. The resulting transfection reagent was applied to the cell culture. After incubation at 37° C., 5% CO2 for 4 hours, the plasmid-transfected CHO cells were harvested by trypsin treatment. The collected cells were resuspended in culture medium and plated into a 384-well-white plate at 8,000 cells/50 μL/well. The plate was let stand at room temperature for 1 hour and then further incubated at 37° C., 5% CO2 for 3 hours. A test compound was dissolved in DMSO to obtain a concentration of 10 mM. Each solution was serially diluted with DMSO and further diluted with culture medium just before use. The test compound solutions were added. to the cells in the plate at 8 different concentrations. The final concentration of DMSO was 0.2% (v/v). After the addition of test compound, the cells were incubated at […], 5% CO2 for 2 days.
(§11) RORγ transcriptional activity was detected as the intracellular luciferase activity using SteadyLite HTS Reporter Gene Assay System (Perkin Elmer). SteadyLite Reagent was diluted five-fold with Extension buffer (10 mM Tricine, 0.2% (w/v) bovine serum albumin, 0.02% (v/v) Tween-20) to obtain a luciferase substrate solution. After the measurement of the cell viability with Resazurin, the medium was removed in the plate and the luciferase substrate solution was added thereto. After the incubation at room temperature for 10 minutes, luminescence of each well was measured with a microplate reader. The luciferase activity derived from the luminescence count in a vehicle-control well treated with 0.2% DMSO alone was defined as 100%, and the luciferase activity after treatment with the test compound was calculated as a percentage, %-of-control, based on the value of the vehicle-control. An EC50 value of the test compound was calculated by curve fitting with GraphPad Prism. The luminescence counts at the concentration of test compound where cytotoxicity was observed were excluded from data analysis. […]

[4] = target: T1, mouse RORγ; experiment: In-vitro reporter gene assay for inhibitory activity against RORγ transcription, Test Method A (GAL4-mRORγ LBD / pG5-Luc in CHO cells); details: luciferase reporter, 2 days
Procedure: as §1, §2, §3, §8, §9, §10, §11

Structure (SMILES) | EC50 [1] | EC50 [2] | EC50 [3] | EC50 [4]
O=C(O)CCN1C=C2CCCCC2(c2ccc(OC3CCCCC3)c(Cl)c2)NC1=O (racemic) [Example 95] | 0.455 µM | 2.34 µM |  | 
COC1CC[C@@]2(c3ccc(CCC(C)(C)C)c(Cl)c3)NC(=O)N(C34CC(C(=O)O)(C3)C4)C=C2C1 (single isomer, unassigned) [Example 77] |  |  | 0.024 µM | 0.031 µM
CC1CCC[C@]2(c3ccc(CCC(C)(C)C)c(Cl)c3)NC(=O)N(C34CC(C(=O)O)(C3)C4)C=C12 (single isomer, unassigned) [Example 78] |  |  | 2.2 µM | > 3.2 µM
CC1CC[C@@]2(c3ccc(CCC(C)(C)C)c(Cl)c3)NC(=O)N(CCC(=O)O)C=C2C1 (single isomer, unassigned) [Example 81] |  |  | 0.013 µM | 0.019 µM
CC(C)(C)CCc1ccc([C@]23CCC(C)(C)CC2=CN(CCC(=O)O)C(=O)N3)cc1Cl (single isomer, unassigned) [Example 82] |  |  | 9.87 µM | 9.79 µM
CC(C)(C)CCc1ccc([C@@]23CCC(C)(C)CC2=CN(CCC(=O)O)C(=O)N3)cc1Cl (single isomer, unassigned) [Example 83] |  |  | 0.014 µM | 0.018 µM
COCC1CC[C@@]2(c3ccc(CCC(C)(C)C)c(Cl)c3)NC(=O)N(C34CC(C(=O)O)(C3)C4)C=C2C1 (single isomer, unassigned) [Example 85] |  |  | 0.033 µM | 0.073 µM
CC(C)(C)CCc1ccc([C@]23CCCCC2=CN(C24CC(C(=O)O)(C2)C4)C(=O)N3)cc1Cl [Example 53] |  |  | > 3.2 µM | 2.73 µM

Next, values leading:

EC50 [1] | EC50 [2] | EC50 [3] | EC50 [4] | Structure (SMILES)
0.169 µM | 0.751 µM |  |  | CC1(C)CC1COc1ccc(C23CCCCC2=CN(CCC(=O)O)C(=O)N3)cc1Cl (racemic) [Example 88]
 |  | 0.015 µM | 0.027 µM | CC1CCC2(c3ccc(CCC(C)(C)C)c(Cl)c3)NC(=O)N(CCC(=O)O)C=C2C1 (single isomer, unassigned) [Example 69]
 |  | 0.541 µM | 0.516 µM | C[C@H]1CC2=CN(CCC(=O)O)C(=O)NC2(c2ccc(CCC(C)(C)C)c(Cl)c2)CO1 (single isomer, unassigned) [Example 70]
 |  | 0.01 µM | 0.007 µM | C[C@@H]1CC2=CN(CCC(=O)O)C(=O)NC2(c2ccc(CCC(C)(C)C)c(Cl)c2)CO1 (single isomer, unassigned) [Example 71]
 |  | 0.028 µM | 0.015 µM | C[C@@H]1CC2=CN(C34CC(C(=O)O)(C3)C4)C(=O)NC2(c2ccc(CCC(C)(C)C)c(Cl)c2)CO1 (single isomer, unassigned) [Example 72]
 |  | 0.061 µM | 0.038 µM | CC(C)(C)CCc1ccc(C23CCC(C(F)(F)F)CC2=CN(C24CC(C(=O)O)(C2)C4)C(=O)N3)cc1Cl (single isomer, unassigned) [Example 75]
 |  | 2.41 µM | 3.03 µM | COC1CC[C@]2(c3ccc(CCC(C)(C)C)c(Cl)c3)NC(=O)N(C34CC(C(=O)O)(C3)C4)C=C2C1 (single isomer, unassigned) [Example 76]
 |  | 0.018 µM | 0.022 µM | CC1CCC[C@@]2(c3ccc(CCC(C)(C)C)c(Cl)c3)NC(=O)N(C34CC(C(=O)O)(C3)C4)C=C12 (single isomer, unassigned) [Example 79]
 |  | > 10 µM | > 10 µM | CC1CC[C@]2(c3ccc(CCC(C)(C)C)c(Cl)c3)NC(=O)N(CCC(=O)O)C=C2C1 (single isomer, unassigned) [Example 80]
 |  | > 10 µM | > 10 µM | COCC1CC[C@]2(c3ccc(CCC(C)(C)C)c(Cl)c3)NC(=O)N(C34CC(C(=O)O)(C3)C4)C=C2C1 (single isomer, unassigned) [Example 84]
 |  | 0.064 µM | 0.035 µM | CC(C)(C)CCc1ccc([C@@]23CCCCC2=CN(C24CC(C(=O)O)(C2)C4)C(=O)N3)cc1Cl [Example 54, 3-{(S)-8a-[3-Chloro-4-(3,3-dimethyl-butyl)phenyl]-2-oxo-1,5,6,7,8,8a-hexahydro-2H-quinazolin-3-yl}bicyclo[1.1.1]pentane-1-carboxylic acid]
